This note sets out measurements from US20120264735A1 (priority 2009, published 2012).

Each structure is given as a SMILES string.

In the assay the target is T1, c-Met kinase (recombinant c-Met) (Homo sapiens, UniProt P08581).
T1 construct: 0.27 nM recombinant c-Met
T1 sequence (P08581 25-1390): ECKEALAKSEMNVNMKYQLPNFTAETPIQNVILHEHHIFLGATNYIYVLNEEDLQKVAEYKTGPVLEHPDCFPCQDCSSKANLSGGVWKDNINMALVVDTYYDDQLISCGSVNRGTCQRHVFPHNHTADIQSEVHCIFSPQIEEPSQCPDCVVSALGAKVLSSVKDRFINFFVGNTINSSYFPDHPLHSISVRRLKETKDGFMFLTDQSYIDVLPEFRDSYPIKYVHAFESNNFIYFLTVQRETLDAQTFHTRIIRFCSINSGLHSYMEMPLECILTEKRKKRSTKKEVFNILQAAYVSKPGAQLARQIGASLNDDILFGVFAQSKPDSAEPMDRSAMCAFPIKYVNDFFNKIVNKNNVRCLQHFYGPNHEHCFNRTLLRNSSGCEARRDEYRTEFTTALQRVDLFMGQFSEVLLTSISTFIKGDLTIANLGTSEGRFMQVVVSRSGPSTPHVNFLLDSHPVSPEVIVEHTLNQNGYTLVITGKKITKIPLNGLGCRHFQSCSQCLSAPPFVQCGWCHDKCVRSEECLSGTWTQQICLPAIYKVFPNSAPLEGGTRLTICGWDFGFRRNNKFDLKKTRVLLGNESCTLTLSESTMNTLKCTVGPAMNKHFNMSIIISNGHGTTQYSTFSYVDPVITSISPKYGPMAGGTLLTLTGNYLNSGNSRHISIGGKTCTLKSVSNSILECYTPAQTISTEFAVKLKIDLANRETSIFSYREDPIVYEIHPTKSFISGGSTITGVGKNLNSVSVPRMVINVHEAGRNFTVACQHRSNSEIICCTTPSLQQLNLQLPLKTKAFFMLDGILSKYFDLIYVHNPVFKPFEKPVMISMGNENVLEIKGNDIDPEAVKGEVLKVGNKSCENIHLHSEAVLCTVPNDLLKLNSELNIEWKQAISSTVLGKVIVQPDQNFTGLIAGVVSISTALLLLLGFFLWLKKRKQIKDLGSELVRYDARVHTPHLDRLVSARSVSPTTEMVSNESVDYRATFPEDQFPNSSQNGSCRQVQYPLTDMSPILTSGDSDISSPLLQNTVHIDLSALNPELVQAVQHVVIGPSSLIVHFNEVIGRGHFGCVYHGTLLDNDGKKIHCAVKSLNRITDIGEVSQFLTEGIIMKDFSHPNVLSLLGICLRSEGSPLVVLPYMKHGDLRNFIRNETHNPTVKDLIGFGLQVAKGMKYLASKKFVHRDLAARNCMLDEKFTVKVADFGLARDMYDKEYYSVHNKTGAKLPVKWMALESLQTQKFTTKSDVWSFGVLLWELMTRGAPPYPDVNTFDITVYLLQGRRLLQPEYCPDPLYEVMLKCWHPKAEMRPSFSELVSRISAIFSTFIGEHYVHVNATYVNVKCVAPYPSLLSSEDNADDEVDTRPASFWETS
Description: In vitro kinase assay I (homogeneous time-resolved fluorescence tyrosine kinase assay). The assay is classed as biochemical. The method, boiled down:
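Biotinylated peptide (0.5 μM) phosphorylated by 0.2 nM recombinant c-Met with 50 μM MgATP, 60 min at room temperature, pH 7.4, 5% DMSO. EDTA stop; HTRF read with Eu-anti-phosphotyrosine antibody and streptavidin-APC. IC50 from 4-parameter logistic fit.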
In general, IC50 refers to the concentration needed to halve the response being measured. On to `CCCNC(=O)Nc1cccc(Cc2nn(-c3cnn(C)c3)ccc2=O)c1` [Example 489, 1-(3-{[1-(1-methyl-1H-pyrazol-4-yl)-4-oxo-1,4-dihydropyridazin-3-yl]methyl}phenyl)-3-propylurea], for which the IC50 is < 100 nM. The figure for `Cn1cc(-n2ccc(=O)c(Cc3cccc(NC(=O)NCc4ccccc4)c3)n2)cn1` [Example 490, 1-benzyl-3-(3-{[1-(1-methyl-1H-pyrazol-4-yl)-4-oxo-1,4-dihydropyridazin-3-yl]methyl}phenyl)urea] is < 100 nM; for `CC(C)CNC(=O)Nc1cccc(Cc2nn(-c3cnn(C)c3)ccc2=O)c1` [Example 491, 1-(2-methylpropyl)-3-(3-{[1-(1-methyl-1H-pyrazol-4-yl)-4-oxo-1,4-dihydropyridazin-3-yl]methyl}phenyl)urea] it is < 100 nM.

With `Cn1cc(-n2ccc(=O)c(Cc3cccc(NC(=O)NC4CC4)c3)n2)cn1` [Example 492, 1-cyclopropyl-3-(3-{[1-(1-methyl-1H-pyrazol-4-yl)-4-oxo-1,4-dihydropyridazin-3-yl]methyl}phenyl)urea], the IC50 lay in the range of 100 to 1000 nM. The figure for `COCCNC(=O)Nc1cccc(Cc2nn(-c3cnn(C)c3)ccc2=O)c1` [Example 493, 1-(2-methoxyethyl)-3-(3-{[1-(1-methyl-1H-pyrazol-4-yl)-4-oxo-1,4-dihydropyridazin-3-yl]methyl}phenyl)urea] is < 100 nM.

On to `CCCCNC(=O)Nc1cccc(Cc2nn(-c3cnn(C)c3)ccc2=O)c1` [Example 494, 1-butyl-3-(3-{[1-(1-methyl-1H-pyrazol-4-yl)-4-oxo-1,4-dihydropyridazin-3-yl]methyl}phenyl)urea], for which the IC50 is < 100 nM. The figure for `COc1ccc(CNC(=O)Nc2cccc(Cc3nn(-c4cnn(C)c4)ccc3=O)c2)cc1` [Example 495, 1-(4-methoxybenzyl)-3-(3-{[1-(1-methyl-1H-pyrazol-4-yl)-4-oxo-1,4-dihydropyridazin-3-yl]methyl}phenyl)urea] is < 100 nM; for `O=C(NCCN1CCOCC1)Nc1cccc(Cc2nn(-c3ccc(F)c(F)c3)ccc2=O)c1` [Example 496, 1-(3-{[1-(3,4-difluorophenyl)-4-oxo-1,4-dihydropyridazin-3-yl]methyl}phenyl)-3-(2-morpholin-4-ylethyl)urea] it is < 100 nM; for `COC(=O)Nc1cccc(Cc2nn(-c3cnn(C)c3)ccc2=O)c1` [Example 497, Methyl(3-{[1-(1-methyl-1H-pyrazol-4-yl)-4-oxo-1,4-dihydropyridazin-3-yl]methyl}phenyl)carbamate] it is < 100 nM.

On to `Cn1cc(-n2ccc(=O)c(Cc3cccc(NC(=O)OCc4ccccc4)c3)n2)cn1` [Example 498, benzyl(3-{[1-(1-methyl-1H-pyrazol-4-yl)-4-oxo-1,4-dihydropyridazin-3-yl]methyl}phenyl)carbamate], for which the IC50 was < 100 nM. The figure for `Cn1cc(-n2ccc(=O)c(Cc3cccc(NC(=O)OCCF)c3)n2)cn1` [Example 499, 2-fluoroethyl (3-{[1-(1-methyl-1H-pyrazol-4-yl)-4-oxo-1,4-dihydropyridazin-3-yl]methyl}phenyl)carbamate] is < 100 nM. Next, `CCCCOC(=O)Nc1cccc(Cc2nn(-c3cnn(C)c3)ccc2=O)c1` [Example 500, Butyl (3-{[1-(1-methyl-1H-pyrazol-4-yl)-4-oxo-1,4-dihydropyridazin-3-yl]methyl}phenyl)carbamate]: < 100 nM; `Cn1cc(-n2ccc(=O)c(Cc3cccc(NC(=O)OCC(C)(C)C)c3)n2)cn1` [Example 501, 2,2-dimethylpropyl (3-{[1-(1-methyl-1H-pyrazol-4-yl)-4-oxo-1,4-dihydropyridazin-3-yl]methyl}phenyl)carbamate]: < 100 nM; `COCCOC(=O)Nc1cccc(Cc2nn(-c3cccc(C#N)c3)ccc2=O)c1` [Example 502, 2-methoxyethyl (3-{[1-(3-cyanophenyl)-4-oxo-1,4-dihydropyridazin-3-yl]methyl}phenyl)carbamate]: < 100 nM. For `COCCOC(=O)Nc1cccc(Cc2nn(-c3cc(F)c(F)c(F)c3)ccc2=O)c1` [Example 503, 2-methoxyethyl (3-{[4-oxo-1-(3,4,5-trifluorophenyl)-1,4-dihydropyridazin-3-yl]methyl}phenyl)carbamate], the IC50 was < 100 nM. Consider `CCOC(=O)Nc1cccc(Cc2nn(-c3ccc(F)c(F)c3)ccc2=O)c1` [Example 504, ethyl (3-{[1-(3,4-difluorophenyl)-4-oxo-1,4-dihydropyridazin-3-yl]methyl}phenyl)carbamate], for which the IC50 was < 100 nM.

Consider `CC(C)COC(=O)Nc1cccc(Cc2nn(-c3ccc(F)c(F)c3)ccc2=O)c1` [Example 505, 2-methylpropyl (3-{[1-(3,4-difluorophenyl)-4-oxo-1,4-dihydropyridazin-3-yl]methyl}phenyl)carbamate], for which the IC50 is < 100 nM.

`COCCOC(=O)Nc1cccc(Cc2nn(-c3ccc(F)c(F)c3)ccc2=O)c1` [Example 506, 2-methoxyethyl (3-{[1-(3,4-difluorophenyl)-4-oxo-1,4-dihydropyridazin-3-yl]methyl}phenyl)carbamate]: the IC50 is < 100 nM.

For the molecule `COCCOC(=O)Nc1cccc(Cc2nn(-c3cc(F)cc(F)c3)ccc2=O)c1` [Example 507, 2-methoxyethyl (3-{[1-(3,5-difluorophenyl)-4-oxo-1,4-dihydropyridazin-3-yl]methyl}phenyl)carbamate], the IC50 is < 100 nM. As for `COCCOC(=O)Nc1cccc(Cc2nn(-c3ccc(C#N)cc3)ccc2=O)c1` [Example 508, 2-methoxyethyl (3-{[1-(4-cyanophenyl)-4-oxo-1,4-dihydropyridazin-3-yl]methyl}phenyl)carbamate], the IC50 was < 100 nM.

For `COCCOC(=O)Nc1cccc(Cc2nn(-c3cc(F)cc(Cl)c3)ccc2=O)c1` [Example 509, 2-methoxyethyl (3-{[1-(3-chloro-5-fluorophenyl)-4-oxo-1,4-dihydropyridazin-3-yl]methyl}phenyl)carbamate], the IC50 is < 100 nM. Regarding `Cn1cc(-n2ccc(=O)c(Cc3cccc(NC(=O)OCCn4ccnc4)c3)n2)cn1` [Example 510, 2-(1H-Imidazol-1-yl)ethyl(3-{[1-(1-methyl-1H-pyrazol-4-yl)-4-oxo-1,4-dihydropyridazin-3-yl]methyl}phenyl)carbamate], the IC50 is < 100 nM. For the molecule `CN1CCN(CCCOC(=O)Nc2cccc(Cc3nn(-c4cc(F)c(F)c(F)c4)ccc3=O)c2)CC1` [Example 511, 3-(4-methylpiperazin-1-yl)propyl(3-{[4-oxo-1-(3,4,5-trifluorophenyl)-1,4-dihydropyridazin-3-yl]methyl}phenyl)carbamate], the IC50 was < 100 nM.

For the molecule `O=C(Nc1cccc(Cc2nn(-c3cc(F)c(F)c(F)c3)ccc2=O)c1)OCCN1CCC(C(=O)O)CC1` [Example 512, 1-(2-{[(3-{[4-oxo-1-(3,4,5-trifluorophenyl)-1,4-dihydropyridazin-3-yl]methyl}phenyl)carbamoyl]oxy}ethyl)piperidine-4-carboxylic acid], the IC50 is < 100 nM. Turning to `CC(C)(O)CCOC(=O)Nc1cccc(Cc2nn(-c3cc(F)c(F)c(F)c3)ccc2=O)c1` [Example 514, 3-hydroxy-3-methylbutyl (3-{[4-oxo-1-(3,4,5-trifluorophenyl)-1,4-dihydropyridazin-3-yl]methyl}phenyl)carbamate], the IC50 is < 100 nM.
